Laboratory results published in patent US20220079895A1, “COMPOSITION FOR PREVENTING OR TREATING LIVER DISEASES” (AceBiomed, Inc., priority 2020, published 2022).

Legend:
collagen I [1] = assay: expression of collagen I increased by TGF-β1 in hepatocytes AML12; assay type: cell-based, mouse; details: AML12 cells; for additive interaction with colchicine in inhibiting the expression of collagen I: 5 nM colchicine + 30 μg/ml DPP-4 inhibitor, TGF-β1 (5 ng/ml)
Description: (§1) Mouse hepatocytes, AML12 cells, were incubated at 37° C., 95% air and 5% CO2 in a DMEM/F12 medium containing 5 μg/ml insulin, 5 μg/ml transferrin, 5 ng/ml selenium, 40 ng/ml dexamethasone, 10% fetal bovine serum (FBS) and 1% penicillin/streptomycin. AML12 cells pre-treated with 5 nM of colchicine and 30 μg/ml of a dipeptidyl peptidase-4 (DPP-4) inhibitor were treated with TGF-β1 (5 ng/ml) or 0.2 mM of palmitate after 8 hours, and further incubated for additional 16 hours.
(§2) Total RNA was extracted using an RNeasy mini kit (Qiagen), and then synthesized into cDNA using a high-capacity cDNA reverse transcription kit (Thermo Fisher). The same amount of cDNA was amplified using a SYBR™ green PCR master mix and a 10 pM primer set for each gene. The amplification process was subjected to an initial denaturation process at 95° C. for 5 minutes, and repetitively replication at 95° C. for 10 seconds, 58.5° C. for 10 seconds, and 72° C. for 10 seconds for a total of 40 times.

SREBP1 [2] = assay: expression of SREBP1 induced by palmitate in hepatocytes AML12; assay type: cell-based, mouse; details: AML12 cells; for additive interaction with colchicine in inhibiting the expression of SREBP1: 5 nM colchicine + 30 μg/ml DPP-4 inhibitor, 0.2 mM palmitate
Description: as §1, §2

IL-6 = assay: expression of inflammation-related gene IL-6 in liver tissues, NASH-induced model; assay type: in vivo, mouse; details: high fat diet 30 weeks
Description: as §2

IL-1β [3] = assay: expression of inflammation-related gene IL-1β in liver tissues, NASH-induced model; assay type: in vivo, mouse; details: high fat diet 30 weeks
Description: as §2

NASH-induced model mouse [4] = assay: blood biochemical test: serum triglyceride, NASH-induced model; assay type: in vivo; details: for Triglyceride: serum, HFD + Colchicine alone
Description: Triglyceride levels in mice were measured using an EZ-Triglyceride quantification assay kit (Dogen Bio). 1 ml of 5% NP-40 was added to a mouse serum sample, homogenized on ice, and then sufficiently cooled at room temperature. The sample in which all triglycerides were dissolved by heating once more was centrifuged at 13,000 rpm for 2 minutes, and then an insoluble material was removed, and the sample was diluted 10-fold with distilled water before assay. 2 μl of lipase was added to the sample dispensed in a 96 well plate by 90 μl and reacted for 20 minutes at room temperature, and then the reaction mixture was added to each sample by 50 μl, and further reacted at room temperature for 30 minutes in a light-shielded state. Thereafter, absorbance was measured at 570 nm using a microplate reader.

[5] = system: ApoA1 (Apolipoprotein A1); assay: expression of fat accumulation-related gene ApoA1 in liver tissues, NASH-induced model; assay type: in vivo, mouse; details: high fat diet 30 weeks
Description: as §2

SREBP1 [6] = assay: expression of fat accumulation-related gene SREBP1 in liver tissues, NASH-induced model; assay type: in vivo, mouse; details: high fat diet 30 weeks
Description: as §2

collagen I [7] = assay: expression of fibrosis-related gene collagen I in liver tissues, NASH-induced model; assay type: in vivo, mouse; details: high fat diet 30 weeks
Description: as §2

[8] = system: α-SMA (α-smooth muscle actin); assay: expression of fibrosis-related gene α-SMA in liver tissues, NASH-induced model; assay type: in vivo, mouse; details: high fat diet 30 weeks
Description: as §2

[9] = system: Dgat (Diglyceride acyltransferase); assay: expression of fat accumulation-related gene Dgat in liver tissues, NASH-induced model; assay type: in vivo, mouse; details: high fat diet 30 weeks
Description: as §2

TNF-α = assay: expression of inflammation-related gene TNF-α in liver tissues, NASH-induced model; assay type: in vivo, mouse; details: high fat diet 30 weeks
Description: as §2

NASH-induced model mouse [10] = assay: blood biochemical test: serum AST, NASH-induced model; assay type: in vivo; details: for AST: serum, HFD + Colchicine alone
Description: The activity of aspartate aminotransferase (AST) of mice was measured using an AST activity assay kit (Abcam).

NASH-induced model mouse [11] = assay: blood biochemical test: serum total cholesterol, NASH-induced model; assay type: in vivo; details: for Total cholesterol: serum, HFD + Colchicine alone
Description: A total cholesterol amount of mice was measured using a Total cholesterol assay kit (Cell Biolabs). […] Thereafter, 50 μl of a cholesterol reaction reagent was added, and the reaction was performed at 37° C. for 45 minutes by shielding light. For the sample after the reaction, absorbance was measured at 540 to 570 nm using a microplate reader.

NASH-induced model mouse [12] = assay: blood biochemical test: serum ALT, NASH-induced model; assay type: in vivo; details: for ALT: serum, HFD + Colchicine alone
Description: The activity of alanine aminotransferase (ALT) of mice was measured using an ALT activity assay kit (Sigma-Aldrich).

TGF-β1 = assay: expression of fibrosis-related gene TGF-β1 in liver tissues, NASH-induced model; assay type: in vivo, mouse; details: high fat diet 30 weeks
Description: as §2

IL-1β [13] = assay: expression of IL-1β induced by palmitate in hepatocytes AML12; assay type: cell-based, mouse; details: AML12 cells
Description: as §1, §2

NASH-induced model mouse [14] = assay: blood biochemical test: serum bilirubin, NASH-induced model; details: for Bilirubin: serum, HFD + Colchicine alone
[15] = system: nonalcoholic steatohepatitis (NASH)-induced model mouse; assay: H&E staining of liver tissues, fat accumulation, NASH-induced model; assay type: in vivo; details: high fat diet 30 weeks
Description: For H&E staining, deparaffinized tissues were reacted with a 50% hematoxylin solution at room temperature for 20 minutes, reacted with 1% HCl for 1 second, and then immediately transferred to a 0.5% eosin solution and stained for 20 minutes. Thereafter, the tissue was washed with distilled water, reacted with graded alcohol and finally dehydrated with xylene. The dehydrated tissue was fixed on a coverslip using a permount.

NASH-induced model mouse [16] = assay: superoxide (DHE) in liver tissues, NASH-induced model; assay type: in vivo; details: high fat diet 30 weeks
Description: In order to measure production of superoxide in liver tissues of mice, dihydroethidium (DHE) was used as a superoxide fluorescent indicator. In summary, deparaffinized liver tissue slides were reacted at 37° C. for 30 minutes with 10 μM DHE in a light-shielded humidity chamber. After the reaction, fluorescence indicating DHE was measured through a filter in a wavelength band of 580 nm in an Olympus FV1000 fluorescence microscope.

NASH-induced model mouse [17] = assay: hydroxyproline in liver tissues, NASH-induced model; assay type: in vivo; details: high fat diet 30 weeks
Description: 100 mg of liver tissue was homogenized with physiological saline, and then a liver tissue supernatant was separated. The separated supernatant was hydrolyzed at 120° C. for 3 hours by adding the same amount of 12 N HCl. The cooled sample was vortexed and then centrifuged at 10,000 g for 3 minutes, and absorbance was measured at 550 nm using a final microplate reader by using a hydroxyproline assay kit.

[18] = 5 nM colchicine alone, 0.2 mM palmitate after 8 hours, additional 16 hours
[19] = colchicine 40 μg/kg alone, orally once a day
[20] = co-administration with colchicine, for each sitagliptin concentration
[21] = high-fat diet 30 weeks, sitagliptin co-administered with colchicine by concentration
[22] = co-administration with colchicine 40 μg/kg, for each sitagliptin concentration

Cc1cc(N2CCN([C@@H]3CN[C@H](C(=O)N4CCSC4)C3)CC2)n(-c2ccccc2)n1 [teneligliptin]
slight additive interaction: additive interaction with colchicine in inhibiting the expression of collagen I (collagen I [1])
excluding: additive interaction with colchicine in inhibiting the expression of SREBP1 (SREBP1 [2])

N#C[C@@H]1CCCN1C(=O)CNC12CC3CC(CC(O)(C3)C1)C2 [vildagliptin]
slight additive interaction: additive interaction with colchicine in inhibiting the expression of collagen I (collagen I [1])

CC(C)(C)OC[C@@H]1C(=O)NCCN1C(=O)C[C@H](N)Cc1cc(F)c(F)cc1F [evogliptin]
slight additive interaction: additive interaction with colchicine in inhibiting the expression of collagen I (collagen I [1])

COc1cc2c(c(OC)c1OC)-c1ccc(OC)c(=O)cc1[C@@H](NC(C)=O)CC2 [Colchicine, colchicine]
264.8 ± 0.87 mg/dL: Total cholesterol (NASH-induced model mouse [11])
slightly reduced: fat accumulation in liver tissues (H&E) [15, 19]
154.7 ± 4.24 U/L: ALT (NASH-induced model mouse [12])
200.7 ± 2.74 U/L: AST (NASH-induced model mouse [10])
reduced: expression of IL-6 in liver tissues (IL-6; colchicine 40 μg/kg alone) | expression of IL-1β in liver tissues (IL-1β [3]; colchicine 40 μg/kg alone) | expression of ApoA1 in liver tissues ([5]; colchicine 40 μg/kg alone) | expression of SREBP1 in liver tissues (SREBP1 [6]; colchicine 40 μg/kg alone) | expression of collagen I in liver tissues (collagen I [7]; colchicine 40 μg/kg alone) | expression of collagen I increased by TGF-β1 (collagen I [1]; 5 nM colchicine alone, TGF-β1 (5 ng/ml) after 8 hours, additional 16 hours) | expression of α-SMA in liver tissues ([8]; colchicine 40 μg/kg alone) | expression of Dgat in liver tissues ([9]; colchicine 40 μg/kg alone) | expression of TNF-α in liver tissues (TNF-α; colchicine 40 μg/kg alone) | expression of TGF-β1 in liver tissues (TGF-β1; colchicine 40 μg/kg alone) | expression of IL-1β induced by palmitate (IL-1β [13]; [18]) | expression of SREBP1 induced by palmitate (SREBP1 [2]; [18]) | production of superoxide in liver tissues (NASH-induced model mouse [16]; colchicine 40 μg/kg alone) | accumulation of hydroxyproline in liver tissues (NASH-induced model mouse [17]; [19])
decreased: Triglyceride (NASH-induced model mouse [4]; listed as colchicine) | AST (NASH-induced model mouse [10]; listed as colchicine) | Total cholesterol (NASH-induced model mouse [11]; listed as colchicine) | ALT (NASH-induced model mouse [12]; listed as colchicine) | Bilirubin (NASH-induced model mouse [14]; listed as colchicine)
0.57 ± 0.05 mg/dL: Bilirubin (NASH-induced model mouse [14])
201.9 ± 0.27 mg/dL: Triglyceride (NASH-induced model mouse [4])

N[C@@H](CC(=O)N1CCn2c(nnc2C(F)(F)F)C1)Cc1cc(F)c(F)cc1F [sitagliptin]
decreases further: level of triglyceride in serum, additive interaction compared with colchicine alone (NASH-induced model mouse [4]; [21]) | level of AST in serum, additive interaction compared with colchicine alone (NASH-induced model mouse [10]; [21]) | level of cholesterol in serum, additive interaction compared with colchicine alone (NASH-induced model mouse [11]; [21]) | level of ALT in serum, additive interaction compared with colchicine alone (NASH-induced model mouse [12]; [21]) | level of bilirubin in serum, additive interaction compared with colchicine alone (NASH-induced model mouse [14]; [21])
most excellent additive interaction: additive interaction with colchicine in inhibiting the expression of collagen I (collagen I [1]) | additive interaction with colchicine in inhibiting the expression of IL-1β (IL-1β [13]; 5 nM colchicine + 30 μg/ml DPP-4 inhibitor, 0.2 mM palmitate) | additive interaction with colchicine in inhibiting the expression of SREBP1 (SREBP1 [2])
additive interaction: effect of reducing the expression of IL-6, interaction with colchicine (IL-6; [20]) | effect of reducing the expression of IL-1β, interaction with colchicine (IL-1β [3]; [20]) | effect of reducing the expression of ApoA1, interaction with colchicine [5, 20] | effect of reducing the expression of SREBP1, interaction with colchicine (SREBP1 [6]; [20]) | effect of reducing the expression of collagen I, interaction with colchicine (collagen I [7]; [20]) | effect of reducing the expression of α-SMA, interaction with colchicine [8, 20] | effect of reducing the expression of Dgat, interaction with colchicine [9, 20] | effect of reducing the expression of TNF-α, interaction with colchicine (TNF-α; [20]) | effect of reducing the expression of TGF-β1, interaction with colchicine (TGF-β1; [20]) | steatosis reduction effect, interaction with colchicine [15, 22] | effect of reducing the production of superoxide, interaction with colchicine (NASH-induced model mouse [16]; [20]) | hydroxyproline inhibitory effect, interaction with colchicine (NASH-induced model mouse [17]; [22])
